Here are results for four compounds from patent US20220323379A1, “P62 LIGAND COMPOUND AND ER-PHAGY-PROMOTING USE THEREOF” (PROTECH, INC., priority 2019, published 2022).

The target in the assay is T1, p62 (Homo sapiens, UniProt Q13501).
T1 construct: PCR amplification of a full-length human p62 cDNA fragment; expressed in transfected cells; unpurified lysate supernatant
Put plainly: In vitro p62 oligomerization assay. The class given is biochemical. As to conditions: 2 h; for p62 oligomerization: dipeptide 50 mM, FIG. 2B; for oligomerization and aggregation of p62: p62-ZZ ligands 1 mM, p62-myc/his cell lysate, FIG. 5B. On the procedure:
FIG. 2B illustrates the in vitro p62 oligomerization assay results in HEK293T cells cultured with Arg-Ala or Ala-Arg dipeptide (50 mM, 2 hours),
FIG. 5B illustrates the in vitro p62 oligomerization assay results in HEK293T cells incubated with the p62-ZZ ligands (1 mM, 2 h) illustrated in FIG. 5A,
HEK293 cells were transiently transfected with a plasmid encoding p62-myc/his fusion proteins (Reference Example 2), resuspended in a lysis buffer [50 mM Hepes (pH 7.4), 0.15 M KCl, 0.1% Nonidet P-40), 10% glycerol, and a mixture of protease inhibitors and phosphatase inhibitor (Abcam)] and lysed by 10 cycles of freezing and thawing, followed by centrifugation at 13,000×g for 20 min at 4° C. The protein concentration in the supernatant was determined using a BCA assay (Thermo Fisher Scientific). A total of 1 μg of protein was mixed with 50 mM of the Arg-Ala or Ala-Arg dipeptide (Anygen) or 1000 μM of p62-ZZ ligands in the presence of 100 μM bestatin (Enzo) at room temperature for 2 h. Next, a non-reducing 4×LDS sample buffer was added to each sample, heated at 95° C. for 10 min, and resolved using 4-20% gradient SDS-PAGE (Bio-Rad). Immunoblotting analysis was carried out to monitor the conversion of p62 monomers into oligomers or aggregates using an anti-myc antibody.

As to Ala-Arg, the p62 oligomerization entry is “did not induce p62 oligomerization”.

Regarding Arg-Ala, the p62 oligomerization entry was “induced p62 oligomerization”.

Consider `O=Cc1ccc(OCc2ccccc2)c(OCc2ccccc2)c1` [compound 1101, 3,4-bis(benzyloxy)benzaldehyde], for which the “oligomerization and aggregation of p62” value is “negative controls”.

As for `COC(=O)CNC[C@@H](O)COc1ccc(OCc2ccccc2)c(OCc2ccccc2)c1` [YOK-G-1104, methyl (R)-(3-(3,4-bis(benzyloxy)phenoxy)-2-hydroxypropyl)glycinate], the “oligomerization and aggregation of p62” value is “negative controls”.
